In patent publication US20010021697A1, “METHODS AND COMPOSITIONS FOR THE TREATMENT OF MAMMALIAN INFECTIONS EMPLOYING MEDICAMENTS COMPRISING HYMENOPTERA VENOM, PROTEINAGEOUS OR POLYPEPTIDE COMPONENTS THEREOF, OR ANALOGUES OF SUCH PROTEINACEOUS OR POLYPEPTIDE COMPONENTS” (priority 1987, published 2001):
“And” between values parts separate entries of the source, which are not always exact repeats. Equal entries are not always repeated. Where two headings read alike, the source gives them in different places.

What was measured:
Type in all cases: cell-based
[1] = test system: Staphylococcus aureus; conditions: Venom 4 ug/ml; for optical density, AVERAGE: AVERAGE line; for optical density: single replicates
[2] = test system: Pseudomonas aeruginosa; conditions: Venom 40 ug/ml; for optical density, AVERAGE: AVERAGE line; for optical density: single replicates
[3] = test system: kanamycin resistant S. aureus; assay: Checkerboard titration assay for synergy of honeybee venom with antibiotics (OD660 growth curves)
[4] = test system: S. aureus; assay: Equivalent doses of melittin fraction and whole honeybee venom with and without kanamycin (growth curves); conditions: doses of what is present: KANA = 2.5, MEL = 1.6, HBV = 2 (ug/ml)
[5] = 0 hours after innoculation, doses of what is present: Rifampicin .001 ug/ml
[6] = 0 hours after innoculation, doses of what is present: Rifampicin .01 ug/ml
[7] = 2 hours after innoculation, doses of what is present: Rifampicin .001 ug/ml
[8] = 2 hours after innoculation, doses of what is present: Rifampicin .01 ug/ml
[9] = 4 hours after innoculation, doses of what is present: Rifampicin .001 ug/ml
[10] = 4 hours after innoculation, doses of what is present: Rifampicin .01 ug/ml
[11] = 6 hours after innoculation, doses of what is present: Rifampicin .001 ug/ml
[12] = 6 hours after innoculation, doses of what is present: Rifampicin .01 ug/ml
[13] = 8 hours after innoculation, doses of what is present: Rifampicin .001 ug/ml
[14] = 8 hours after innoculation, doses of what is present: Rifampicin .01 ug/ml
[15] = 12 hours after innoculation, doses of what is present: Rifampicin .001 ug/ml
[16] = 12 hours after innoculation, doses of what is present: Rifampicin .01 ug/ml
[17] = 0 hours after innoculation, doses of what is present: Rifampicin 10 ug/ml
[18] = 0 hours after innoculation, doses of what is present: Rifampicin 20 ug/ml
[19] = 2 hours after innoculation, doses of what is present: Rifampicin 10 ug/ml
[20] = 2 hours after innoculation, doses of what is present: Rifampicin 20 ug/ml
[21] = 4 hours after innoculation, doses of what is present: Rifampicin 10 ug/ml
[22] = 4 hours after innoculation, doses of what is present: Rifampicin 20 ug/ml
[23] = 6 hours after innoculation, doses of what is present: Rifampicin 10 ug/ml
[24] = 6 hours after innoculation, doses of what is present: Rifampicin 20 ug/ml
[25] = 8 hours after innoculation, doses of what is present: Rifampicin 10 ug/ml
[26] = 8 hours after innoculation, doses of what is present: Rifampicin 20 ug/ml
[27] = 12 hours after innoculation, doses of what is present: Rifampicin 10 ug/ml
[28] = 12 hours after innoculation, doses of what is present: Rifampicin 20 ug/ml

## CO[C@H]1/C=C/O[C@@]2(C)Oc3c(C)c(O)c4c(O)c(c(/C=N/N5CCN(C)CC5)c(O)c4c3C2=O)NC(=O)/C(C)=C\C=C\[C@H](C)[C@H](O)[C@@H](C)[C@@H](O)[C@@H](C)[C@H](OC(C)=O)[C@@H]1C [Rifampicin]
[1]; [5]
  optical density, AVERAGE: .046
  optical density: .046
[1]; [6]
  optical density, AVERAGE: .046
  optical density: .046
[1]; [7]
  optical density, AVERAGE: .072
  optical density: .081 (2×) and .072
[1]; [8]
  optical density, AVERAGE: .056
  optical density: .056 and .054 and .058
[1]; [9]
  optical density, AVERAGE: .807
  optical density: .855 and .765 and .800
[1]; [10]
  optical density, AVERAGE: .107
  optical density: .140 and .068 and .112
[1]; [11]
  optical density, AVERAGE: 1.17
  optical density: 1.18 and 1.16 and 1.17
[1]; [12]
  optical density, AVERAGE: .277
  optical density: .372 and .156 and .304
[1]; [13]
  optical density, AVERAGE: 1.26
  optical density: 1.27 and 1.26 (2×)
[1]; [14]
  optical density, AVERAGE: .898
  optical density: 1.07 and .625 and 1.00
[1]; [15]
  optical density, AVERAGE: 1.34
  optical density: 1.34
[1]; [16]
  optical density, AVERAGE: 1.32
  optical density: 1.32 and 1.34 and 1.30
[2]; [17]
  optical density, AVERAGE: .033
  optical density: .033
[2]; [18]
  optical density, AVERAGE: .033
  optical density: .033
[2]; [19]
  optical density, AVERAGE: .080
  optical density: .074 and .084 and .082
[2]; [20]
  optical density, AVERAGE: .057
  optical density: .053 and .056 and .063
[2]; [21]
  optical density, AVERAGE: .647
  optical density: .630 and .672 and .640
[2]; [22]
  optical density, AVERAGE: .351
  optical density: .375 and .326 and .380
[2]; [23]
  optical density, AVERAGE: .837
  optical density: .830 (2×) and .850
[2]; [24]
  optical density, AVERAGE: .688
  optical density: .660 and .645 and .700
[2]; [25]
  optical density, AVERAGE: .882
  optical density: .885 and .895 and .865
[2]; [26]
  optical density, AVERAGE: .737
  optical density: .730 and .720 and .760
[2]; [27]
  optical density, AVERAGE: .841
  optical density: .842 and .850 and .832
[2]; [28]
  optical density, AVERAGE: .735
  optical density: .730 (2×) and .745

## NC[C@H]1O[C@H](O[C@H]2[C@H](O)[C@@H](O[C@H]3O[C@H](CO)[C@@H](O)[C@H](N)[C@H]3O)[C@H](N)C[C@@H]2N)[C@H](O)[C@@H](O)[C@@H]1O [Kanamycin]
[3]; KANA = 5, HBV = 0, T0
  MEAN A660: 0.016
[3]; KANA = 5, HBV = 0, T2
  MEAN A660: 0.047
[3]; KANA = 5, HBV = 0, T4
  MEAN A660: 0.204
[3]; KANA = 5, HBV = 0, T6
  MEAN A660: 0.282
[3]; KANA = 5, HBV = 0, T8
  MEAN A660: 0.351
[3]; KANA = 5, HBV = 0, T12
  MEAN A660: 0.751
[3]; KANA = 5, HBV = 0, T24
  MEAN A660: 1.152
[3]; KANA = 10, HBV = 0, T0
  MEAN A660: 0.016
[3]; KANA = 10, HBV = 0, T2
  MEAN A660: 0.047
[3]; KANA = 10, HBV = 0, T4
  MEAN A660: 0.135
[3]; KANA = 10, HBV = 0, T6
  MEAN A660: 0.172
[3]; KANA = 10, HBV = 0, T8
  MEAN A660: 0.200
[3]; KANA = 10, HBV = 0, T12
  MEAN A660: 0.397
[3]; KANA = 10, HBV = 0, T24
  MEAN A660: 1.164
[3]; KANA = 20, HBV = 0, T0
  MEAN A660: 0.016
[3]; KANA = 20, HBV = 0, T2
  MEAN A660: 0.047
[3]; KANA = 20, HBV = 0, T4
  MEAN A660: 0.123
[3]; KANA = 20, HBV = 0, T6
  MEAN A660: 0.145
[3]; KANA = 20, HBV = 0, T8
  MEAN A660: 0.166
[3]; KANA = 20, HBV = 0, T12
  MEAN A660: 0.220
[3]; KANA = 20, HBV = 0, T24
  MEAN A660: 0.975
[3]; KANA = 40, HBV = 0, T0
  MEAN A660: 0.016
[3]; KANA = 40, HBV = 0, T2
  MEAN A660: 0.047
[3]; KANA = 40, HBV = 0, T4
  MEAN A660: 0.116
[3]; KANA = 40, HBV = 0, T6
  MEAN A660: 0.146
[3]; KANA = 40, HBV = 0, T8
  MEAN A660: 0.161
[3]; KANA = 40, HBV = 0, T12
  MEAN A660: 0.184
[3]; KANA = 40, HBV = 0, T24
  MEAN A660: 0.697
[4]; T0
  MEAN A660: 0.021
[4]; T2
  MEAN A660: 0.080
[4]; T4
  MEAN A660: 0.692
[4]; T6
  MEAN A660: 1.114
[4]; T8
  MEAN A660: 1.217
[4]; T12
  MEAN A660: 1.265
[4]; T24
  MEAN A660: 1.330
